{"source": "patent US10750729B2", "about": "“Pig for atrioventricular block model, monkey for atrioventricular block model, guinea pig for atrioventricular block model, and use thereof” (Toho University, priority 2012, dated 2020)", "key": {"Guinea pigs (Hartley)": {"system": "Guinea pigs (Hartley)", "test": "Test Example 3-1: electrocardiogram and aortic pressure of halothane-anesthetized guinea pigs (FTY720)", "type": "in vivo", "conditions": "guinea pig", "description": "Guinea pigs (Hartley, body weight: 420 g to 650 g, male, obtained from Japan SLC, Inc.) were each anesthetized by intraperitoneally administering thereto sodium thiopental (product of Mitsubishi Tanabe Pharma Corporation) at 50 mg/kg. Next, a tracheal cannula was inserted into each of the guinea pigs. While their body temperature was being maintained at 37° C. with a warming pad, the guinea pigs were allowed to inhale 100% by volume oxygen and 1% by volume vaporized halothane (product of Takeda Pharmaceutical Company Limited.) using an artificial respirator for experimental animals (SN-480-7; product of shimano Co., Ltd.). Here, the artificial respirator for experimental animals was set to a tidal volume of 10 mL/kg and a respiration rate of 60 strokes/min. Next, a cannula for drug administration was inserted to their left femoral vein. In addition, a heparinized catheter for monitoring the blood pressure was inserted to the aorta through the left femoral […]. Then, ECG standard limb II leads was continuously recorded.\nEach of the guinea pigs (n=12) of Example 3 was recorded for an electrocardiogram before administration of a drug or a solvent.\nFTY720 (product of Sigma-Aldrich Inc.) was dissolved in physiological saline (product of Otsuka Pharmaceutical Factory, Inc.) so as to have a concentration of 0.03 mg/mL.\n(§1) After the evaluation of base control, the cannula for drug administration was inserted, and the above-prepared FTY720 solution was intravenously administered to each of the guinea pigs (n=4) of Example 3 for 10 min at a dose of 0.01 mg/kg. These guinea pigs were evaluated for parameters by the following evaluation methods at 5 min, 10 min, 15 min, 20 min, 30 min, 45 min or 60 min after the administration of the FTY720 solution.\nFTY720 (product of Sigma-Aldrich Inc.) was dissolved in physiological saline (product of Otsuka Pharmaceutical Factory, Inc.) so as to have a concentration of 0.3 mg/mL.\nas §1, with “0.1” for “0.01”\nThe aortic pressure and the electrocardiogram were monitored using a polygraph system (RM-6000, product of NIHON KOHDEN Co. Ltd.) and analyzed with a full-automated analysis system in real time (WinVAS ver. 3, 1.1R03; product of Physio-Tech Co., Ltd.).\nParameters of the electrocardiogram were measured three times, and the obtained values were averaged. Atrial rate was calculated from PP interval of the electrocardiogram. Ventricular rate was calculated from RR interval of the electrocardiogram.\nThe measurements in FIGS. 4A to 4E are expressed as mean±SE (n=4). The difference between the parameters was evaluated with one-way repeated measures analysis of variance (ANOVA). It was considered that p<0.05 is statistically significant. In FIG. 4A to 4C and FIG. 4E, “white circle,” “white square” and “white triangle” each mean absence of a significant difference relative to the value of the evaluation of base control (C), and “black circle” and “black square” each mean presence of a significant difference relative to the value of the evaluation of base control (C).\nAlso, in FIG. 4D, “white circle” means absence of development of atrioventricular block or presence of development of first-degree atrioventricular block, “white square” means presence of development of second-degree atrioventricular block (Wenckebach type), “white triangle” means presence of development of advanced atrioventricular block, “x-mark” means presence of development of third-degree atrioventricular block (complete atrioventricular block), and #1 to 4 refer to each individual."}, "[1]": {"system": "Extremely small-size miniature pigs (Microminipig)", "test": "Test Example 1: electrocardiogram of halothane-anesthetized extremely small-size miniature pigs", "type": "in vivo", "conditions": "pig; for Heart rate (HR) / PR interval / QT interval / RR interval: 0.1 mg/kg/10 min i.v., individuals #1, #2, 0.1 mg/kg", "source_text": "Extremely small-size miniature pigs (trade name: Microminipig, body weight: about 10 kg, male, obtained from Fuji Micra Inc.) were each anesthetized by allowing them to inhale 100% by volume oxygen and 4% by volume vaporized halothane (product of Takeda Pharmaceutical Company Limited.). After insertion of a tracheal cannula, an artificial respirator was used to ventilate it with 100% by volume oxygen and 1% by volume vaporized halothane. Here, the artificial respirator for experimental animals was set to a tidal volume of 10 mL/kg and a respiration rate of 20 strokes/min. Next, a cannula for drug administration was inserted to their left femoral vein. Then, ECG standard limb II leads was continuously recorded.\nEach of the extremely small-size miniature pigs (n=2) of Example 1 was recorded for an electrocardiogram before drug administration.\nFingolimod (FTY720, product of Sigma-Aldrich Inc.) was dissolved in physiological saline (product of Otsuka Pharmaceutical Factory, Inc.) so as to have a concentration of 0.1 mg/mL.\nAfter the evaluation of base control, the cannula for drug administration was inserted, and the above-prepared FTY720 solution was intravenously administered to each of the extremely small-size miniature pigs (n=2) of Example 1 for 10 min at a dose of 0.1 mg/kg. An electrocardiogram was recorded for 60 min from the start of administration of the FTY720 solution."}, "mouse": {"system": "mouse", "conditions": "dose 10 times to 30 times greater than that for human; cited from earlier work"}, "[2]": {"conditions": "FTY720 0.01 and 0.1 mg/kg/10 min i.v., for 60 min from start"}, "[3]": {"conditions": "high-dose 0.1 mg/kg/10 min i.v., n=4"}, "[4]": {"conditions": "10 min after the administration"}, "[5]": {"conditions": "60 min after the administration"}}, "note": "Values joined by “and” are separate entries in the source; they are usually repeats but may differ in a detail not shown here. Identical values can stand only once.", "data": [{"compound": "CCCCCCCCc1ccc(CCC(N)(CO)CO)cc1", "note": "[FTY720, Fingolimod]", "values": [{"measurement": "change in atrial rate", "setting": "Guinea pigs (Hartley); [2]", "result": "no significant change"}, {"measurement": "change in blood pressure (MBP)", "setting": "Guinea pigs (Hartley); [2]", "result": "no significant change"}, {"measurement": "change in QRS width", "setting": "Guinea pigs (Hartley); high-dose 0.1 mg/kg/10 min i.v.", "result": "no significant change"}, {"measurement": "correspondence of P wave and R wave in the electrocardiogram", "setting": "Guinea pigs (Hartley); high-dose 0.1 mg/kg/10 min i.v., 45 min after start", "result": "the atrium and the ventricle are contracted independently of each other at their own individual rhythms"}, {"measurement": "change in PR interval", "setting": "Guinea pigs (Hartley); high-dose 0.1 mg/kg/10 min i.v., before development of atrioventricular block", "result": "prolonged"}, {"measurement": "change in ventricular rate", "setting": "Guinea pigs (Hartley); high-dose 0.1 mg/kg/10 min i.v., from 20 min to 60 min", "result": "significant decrease"}, {"measurement": "change in QT interval", "setting": "Guinea pigs (Hartley); high-dose 0.1 mg/kg/10 min i.v., from 45 min to 60 min", "result": "prolonged"}, {"measurement": "individuals that developed Wenckebach-type atrioventricular block", "setting": "Guinea pigs (Hartley); [3]", "result": "one individual"}, {"measurement": "individuals that developed complete atrioventricular block", "setting": "Guinea pigs (Hartley); [3]", "result": "three individuals out of the four individuals"}, {"measurement": "change in any electrophysiological parameters (PR interval, QRS width, QT interval)", "setting": "Guinea pigs (Hartley); low-dose 0.01 mg/kg/10 min i.v., at 60 min from start", "result": "no significant change"}, {"measurement": "change in ventricular rate", "setting": "Guinea pigs (Hartley); low-dose 0.01 mg/kg/10 min i.v., for 60 min from start", "result": "no significant change"}, {"measurement": "QT interval change versus base control", "setting": "[1]; 0.1 mg/kg i.v., 10 min after the administration", "result": "prolongation of QT interval was observed"}, {"measurement": "PR interval change versus base control", "setting": "[1]; 0.1 mg/kg i.v., 60 min after the administration", "result": "prolongation of PR interval was also observed"}, {"measurement": "Heart rate (HR)", "setting": "[1]; [4]", "result": "137 beats/min and 192 beats/min"}, {"measurement": "PR interval", "setting": "[1]; [4]", "result": "78 ms and 71 ms"}, {"measurement": "QT interval", "setting": "[1]; [4]", "result": "271 ms and 221 ms"}, {"measurement": "RR interval", "setting": "[1]; [4]", "result": "438 ms and 311 ms"}, {"measurement": "Heart rate (HR)", "setting": "[1]; [5]", "result": "197 beats/min and 108 beats/min"}, {"measurement": "PR interval", "setting": "[1]; [5]", "result": "75 ms and 89 ms"}, {"measurement": "QT interval", "setting": "[1]; [5]", "result": "227 ms and 271 ms"}, {"measurement": "RR interval", "setting": "[1]; [5]", "result": "304 ms and 552 ms"}, {"measurement": "occurrence of atrioventricular block", "setting": "mouse", "result": "not reported"}]}]}
